Assay results published in PMC6835155, “Lessons from LIMK1 enzymology and their impact on inhibitor design” (Biochemical Journal, 2019).
Structures can show the parent of a compound that is named as a salt. Where two headings read alike, the source gives them in different places.

What was measured:
LIMK1KD = molecular target: T1, LIMK1KD (Homo sapiens, UniProt P53667); experiment: Differential (dynamic) scanning fluorimetry (DSF) assay, LIMK1KD; format: binding
T1 construct: His6 (N, cleaved yes); made in house; host or cells: baculovirus; Sf9 for virus, TriEx insect cells for expression

LIMK2KD = molecular target: T2, LIMK2KD (Homo sapiens, UniProt P53671); experiment: Differential (dynamic) scanning fluorimetry (DSF) assay, LIMK2KD; format: binding
T2 construct: The cDNA coding for LIMK2 residues 330 to 632 was PCR amplified; His6 (N, cleaved yes); made in house; host or cells: baculovirus; Sf9 for virus, TriEx insect cells for expression

[1] = 2 µM LIMK1KD, compound 10 µM, single shot, read-out: TM Shift LIMK1 (K)
[2] = LIMK2KD, compound 10 µM, single shot, read-out: TM Shift LIMK2 (K)
[3] = 2 µM LIMK1KD, compound 10 µM, single shot
[4] = LIMK2KD, compound 10 µM, single shot
[5] = LIMK2KD, compound 10 µM, single shot, 10 µM

T1 sequence (P53667 330-637): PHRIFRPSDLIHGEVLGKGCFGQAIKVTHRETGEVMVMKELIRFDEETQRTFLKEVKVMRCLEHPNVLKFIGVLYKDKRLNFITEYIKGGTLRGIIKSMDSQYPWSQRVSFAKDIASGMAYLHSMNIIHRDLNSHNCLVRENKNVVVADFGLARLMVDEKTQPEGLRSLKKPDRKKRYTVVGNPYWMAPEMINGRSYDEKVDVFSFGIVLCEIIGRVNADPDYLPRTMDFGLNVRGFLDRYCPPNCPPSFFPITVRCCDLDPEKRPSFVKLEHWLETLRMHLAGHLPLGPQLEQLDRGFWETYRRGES
T2 sequence (P53671 330-632): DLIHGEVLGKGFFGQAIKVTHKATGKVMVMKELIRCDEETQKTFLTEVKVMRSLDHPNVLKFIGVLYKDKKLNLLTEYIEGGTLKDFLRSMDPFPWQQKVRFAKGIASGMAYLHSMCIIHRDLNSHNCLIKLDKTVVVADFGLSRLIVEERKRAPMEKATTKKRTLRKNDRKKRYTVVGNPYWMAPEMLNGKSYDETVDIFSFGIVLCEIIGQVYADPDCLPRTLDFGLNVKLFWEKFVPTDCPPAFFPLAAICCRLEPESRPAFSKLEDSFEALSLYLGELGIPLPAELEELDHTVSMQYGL

Molecule	ΔTm at 10 µM (LIMK1KD; [1]) [°C]	ΔTm at 10 µM (LIMK2KD; [2]) [°C]	TM Shift LIMK1 (K) (LIMK1KD; [3])	TM Shift LIMK2 (K) (LIMK2KD; [4])	other results
CO[C@H]1C[C@@H]2CC[C@@H](C)[C@@](O)(O2)C(=O)C(=O)N2CCCC[C@H]2C(=O)O[C@H]([C@H](C)C[C@@H]2CC[C@@H](OP(C)(C)=O)[C@H](OC)C2)CC(=O)[C@H](C)/C=C(\C)[C@@H](O)[C@@H](OC)C(=O)[C@H](C)C[C@H](C)/C=C/C=C/C=C/1C [Ridaforolimus (Deforolimus, MK-8669), Ridaforolimus]	0.1	0.2	–	–	–
Cc1ccccc1-n1c(Cn2ncc3c(N)ncnc32)nc2cccc(C)c2c1=O [PIK-293]	–	–	0.6	0.9	–
CN(C)Cc1cccc(N/C(=C2\C(=O)Nc3cc(C(N)=O)ccc32)c2ccccc2)c1 [BIX 02188]	1.7	-0.1	–	–	–
Cc1cnc(Nc2ccc(F)cc2Cl)nc1-c1c[nH]c(C(=O)N[C@H](CO)c2cccc(Cl)c2)c1 [VX-11E]	–	–	0.0	-1.6	–
CCn1c(-c2nonc2N)nc2c(C#CC(C)(C)O)ncc(OC[C@H]3CCCNC3)c21 [GSK690693]	-0.1	0	–	–	–
CC(C)n1nc(-c2ccc3oc(N)nc3c2)c2c(N)ncnc21 [INK 128 (MLN0128)]	1.4	0.3	–	–	–
CN1CCC(c2c(O)cc(O)c3c(=O)cc(-c4ccccc4Cl)oc23)C1CO (centres unmarked) [P276-00]	–	–	0.7	1.3	–
O=C1NC(=O)[C@@H](c2cn3c4c(cccc24)CCC3)[C@@H]1c1c[nH]c2ccccc12 [Tivantinib]	0	0.6	–	–	–
Cc1cc(Nc2nc(N[C@@H](C)c3ncc(F)cn3)ncc2Cl)n[nH]1 [AZD1480]	4.7	0.6	–	–	–
CC1(COc2ccc3c(c2)ncn3-c2ccc3cccc(N4CCC(N)CC4)c3n2)COC1 [Crenolanib (CP-868596), Crenolanib]	1	0.5	–	–	–
Cc1cnc(Nc2ccc(N3CCN(C)CC3)cc2)nc1Nc1cccc(S(=O)(=O)NC(C)(C)C)c1 [TG101209]	–	–	2.4	3.1	–
CCc1cnn2c(NCc3ccc[n+]([O-])c3)cc(N3CCCC[C@H]3CCO)nc12 [Dinaciclib (SCH727965), Dinaciclib]	-0.3	0.6	–	–	–
Nc1nc(N)c2nc(-c3cccc(O)c3)cnc2n1 [TG100713]	–	–	1.4	0.7	–
CNCc1ccc(-c2cc(-c3nc(-c4ccc(S(=O)(=O)C(C)C)cc4)cnc3N)on2)cc1 [VE-822]	-0.5	0.5	–	–	–
C#Cc1cccc(Nc2ncnc3cc(OC)c(OCCCCCCC(=O)NO)cc23)c1 [CUDC-101]	0.8	1.6	–	–	–
AZD4547	–	–	-0.1	-0.1	–
COc1ccc(-c2ccc3ncc4c(c3c2)n(-c2ccc(N3CCNCC3)c(C(F)(F)F)c2)c(=O)n4C)cn1 [BGT226 (NVP-BGT226)]	-0.1	-0.7	–	–	–
Oc1cc(O)cc(/C=C/c2ccc(O)c(O)c2)c1 [Piceatannol]	-0.6	0.8	–	–	–
[H]/N=C(/N)N/C(=N/[H])NCCc1ccccc1 [Phenformin HCl]	-0.3	0.6	–	–	–
COc1cc2c(Oc3ccc(NC(=O)C4(C(=O)Nc5ccc(F)cc5)CC4)cc3F)ccnc2cc1OCCCN1CCOCC1 [Foretinib (GSK1363089), Foretinib]	1.9	-0.4	–	–	–
Nc1ncnc2c1c(COc1cccc(Cl)c1)nn2C1CCOCC1 [PF-4800567]	1.3	-0.8	–	–	–
COc1ncc(-c2ccc3nccc(-c4ccnnc4)c3c2)cc1NS(=O)(=O)c1ccc(F)cc1F [GSK2126458 (GSK458)]	–	–	1.2	0.9	–
Cc1cn(-c2cc(NC(=O)c3ccc(C)c(Nc4nccc(-c5cccnc5)n4)c3)cc(C(F)(F)F)c2)cn1 [Nilotinib (AMN-107), Nilotinib]	0.5	0.4	–	–	–
Clc1ccc(C2(c3ccc(-c4cn[nH]c4)cc3)CCNCC2)cc1 [AT7867]	–	–	0.9	1.4	–
Cn1cc(-c2ccc3nnc(Sc4ccc5ncccc5c4)n3n2)cn1 [SGX-523]	-0.4	0.2	–	–	–
N#CC(C#N)=Cc1ccc(O)c(O)c1 [AG-18]	–	–	0.1	0.6	–
CN1CCC(CNc2ccc3ncc(-c4cccc(OC(F)(F)F)c4)n3n2)CC1 [SGI-1776 free base]	–	–	1.7	1.4	–
Cc1ccc(-c2nn(C(C)(C)C)c3ncnc(N)c23)cc1 [PP1]	–	–	2.0	0.0	–

Molecule	ΔTm at 10 µM (LIMK1KD; [1]) [°C]	ΔTm at 10 µM (LIMK2KD; [2]) [°C]	TM Shift LIMK1 (K) (LIMK1KD; [3])	TM Shift LIMK2 (K) (LIMK2KD; [4])	other results
Cc1ccc(C(=O)Nc2cccc(C(F)(F)F)c2)cc1Nc1nc(-c2cccnc2)nc2c1cnn2C [NVP-BHG712]	–	–	-0.2	1.6	–
CCn1c2ccccc2c2cc(Nc3ccnc(NCCCN4CCOCC4)n3)ccc21 [EHop-016]	–	–	-0.1	-0.7	–
C#Cc1cccc(Nc2ncnc3cc(OCCOC)c(OCCOC)cc23)c1 [Erlotinib HCl (OSI-744), Erlotinib HCl]	0.1	0.5	–	–	–
COc1cc2ncnc(Nc3ccc(F)c(Cl)c3)c2cc1NC(=O)/C=C/CN1CCCCC1 [Dacomitinib (PF299804, PF299), Dacomitinib]	0.9	0.2	–	–	–
C[C@H]1[C@H](C)CC[C@]2(C(=O)O)CC[C@]3(C)C(=CC[C@@H]4[C@@]5(C)C[C@@H](O)[C@H](O)[C@@](C)(CO)[C@@H]5CC[C@]43C)[C@H]12 [Asiatic Acid]	-0.9	1.7	–	–	–
COc1ccc2cc(-c3nc(-c4ccc([S+](C)[O-])cc4)[nH]c3-c3ccncc3)ccc2c1 (centres unmarked) [Tie2 kinase inhibitor]	–	–	1.3	1.4	–
O=C1NC(=O)/C(=C/c2ccc3c(c2)OC(F)(F)O3)S1 [AS-604850]	–	–	0.3	2.2	–
COc1ccc2c(c1)c(C1=C(c3c[nH]c4ccccc34)C(=O)NC1=O)cn2CCCN(C)C [Go 6983]	–	–	0.5	1.8	–
CC(C)(C#N)c1ccc(N2C(=O)OCc3cnc4ccc(-c5cnc6ccccc6c5)cc4c32)cc1 [ETP-46464]	–	–	-0.5	-0.5	–
C=CC(=O)Nc1cccc(Nc2nc(Nc3ccc(N4CCN(C(C)=O)CC4)cc3OC)ncc2C(F)(F)F)c1 [CO-1686 (AVL-301)]	0.4	-0.4	–	–	–
O=C1NC(=O)C(c2ccccc2[N+](=O)[O-])=C1Nc1ccc(O)c(Cl)c1 [SB415286]	–	–	1.7	0.9	–
Cn1cnc(N)c2ncnc1-2 [3-Methyladenine]	0.4	0.5	–	–	–
CNc1nc(-c2ccc3c(N)n[nH]c3c2)cc(N2C[C@@H](C(=O)NC3CCCCC3)CC[C@H]2C)n1 [GSK2334470]	0.5	1.1	–	–	–
C[C@@H](Oc1cc(-c2cnn(C3CCNCC3)c2)cnc1N)c1c(Cl)ccc(F)c1Cl [Crizotinib (PF-02341066), Crizotinib]	3.9	1.4	–	–	–
CS(=O)(=O)CCNCc1ccc(-c2ccc3ncnc(Nc4ccc(OCc5cccc(F)c5)c(Cl)c4)c3c2)o1 [Lapatinib (GW-572016) Ditosylate, Lapatinib]	0.2	1.8	–	–	–
CC(C)(C)n1nc(-c2ccc(Cl)cc2)c2c(N)ncnc21 [PP2]	–	–	2.0	2.4	–
CS(=O)(=O)N1CCN(Cc2cc3nc(-c4cccc5[nH]ncc45)nc(N4CCOCC4)c3s2)CC1 [Pictilisib]	–	–	2.2	–	TM Shift LIMK2 (K) (LIMK2KD; [5]): 0.1 K
Cc1cc2c(F)c(Oc3ncnn4cc(OC[C@@H](C)OC(=O)[C@H](C)N)c(C)c34)ccc2[nH]1 [Brivanib Alaninate (BMS-582664), Brivanib Alaninate]	0.7	0	–	–	–
O=P(O)(O)C(O)(Cn1ccnc1)P(=O)(O)O [Zoledronic Acid]	-0.7	1.3	–	–	–
CHIR-98014	–	–	–	–	TM Shift LIMK1 (K) (LIMK1KD): 5.0 K; TM Shift LIMK2 (K) (LIMK2KD; 10 µM): 0.0 K
CC(C)NC[C@@H](C(=O)N1CCN(c2ncnc3c2[C@H](C)C[C@H]3O)CC1)c1ccc(Cl)cc1 [Ipatasertib]	–	–	2.3	–	TM Shift LIMK2 (K) (LIMK2KD; [5]): 2.3 K
CS(=O)(=O)N1CCc2c(-c3cnc(N)nc3)nc(N3CCOCC3)nc21 [CH5132799]	1.3	0.1	–	–	–
CCc1cc2c(cc1N1CCC(N3CCOCC3)CC1)C(C)(C)c1[nH]c3cc(C#N)ccc3c1C2=O [Alectinib (CH5424802), Alectinib]	-1.6	1.1	–	–	–
CNC(=O)c1ccc(C)c(-n2c(C)cc(OCc3ccc(F)cc3F)c(Br)c2=O)c1 [PH-797804]	1.3	0.1	–	–	–
C[C@@H]1CCN(C(=O)CC#N)C[C@@H]1N(C)c1ncnc2[nH]ccc12 [Tofacitinib (CP-690550) Citrate, Tofacitinib]	-0.4	3.1	–	–	–
Cc1ccc(NC(=O)c2ccc(CN3CCN(C)CC3)cc2)cc1Nc1nccc(-c2cccnc2)n1 [Imatinib (STI571), Imatinib]	–	1	0.8	–	–
CCCCCCCCc1ccc(CCC(N)(CO)CO)cc1 [Fingolimod (FTY720) HCl, Fingolimod]	–	–	–	–	ΔTm at 10 µM (LIMK1KD; read-out: TM Shift LIMK1 (K), 2 µM LIMK1KD, compound 10 µM, single shot): -0.7 °C; ΔTm at 10 µM (LIMK2KD; read-out: TM Shift LIMK2 (K), LIMK2KD, compound 10 µM, single shot): 1.1 °C
